Test system: Pyrenophora teres
Assay: In vivo test on Pyrenophora teres (barley net blotch)
Details: dose of 110 ppm; barley plants (Express variety), preventive spray 24 hours before contamination; grading 12 days after contamination
Procedure: The active ingredients tested are prepared by homogenization in a mixture of acetone/tween/DMSO, then diluted with water to obtain the desired active material concentration.
Barley plants (Express variety), sown on a 50/50 peat soil-pozzolana substrate in starter cups and grown at 12° C., are treated at the 1-leaf stage (10 cm tall) by spraying with the active ingredient prepared as described above. Plants, used as controls, are treated with the mixture of acetone/tween/DMSO/water not containing the active material.
After 24 hours, the plants are contaminated by spraying them with an aqueous suspension of Pyrenophora teres spores (12,000 spores per ml). The spores are collected from a 12-day-old culture. The contaminated barley plants are incubated for 24 hours at about 20° C. and at 100% relative humidity, and then for 12 days at 80% relative humidity.
Grading is carried out 12 days after the contamination, in comparison with the control plants.

## O=C(NCCCCc1ncc(C(F)(F)F)cc1Cl)c1ccccc1C(F)(F)F [Compound 1]
  efficacy (grading in comparison with the control plants): at least 60%

— US20090318290A1, “N-(4-PYRIDIN-2-YLBUTYL) BENZAMIDE DERIVATIVES AND THEIR USE AS FUNGICIDES” (BAYER CROPSCIENCE SA, priority 2006, published 2009)
